Values joined by “and” are separate entries in the source; they are usually repeats but may differ in a detail not shown here. Equal entries are not always repeated. Toxic doses and inconclusive results are not listed.

From PubChem BioAssay AID248 (DTP/NCI, 2004) come the findings set out here.

The test system of the test is L1210 leukemia ip in BDF1 mice, survival T/C. Briefly: NCI In Vivo Anticancer Drug Screen. Data for tumor model L1210 Leukemia (intraperitoneal) in B6D2F1 (BDF1) mice. To be noted: higher = longer survival. In a few lines:
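Transplantable tumor model; survival measured in treated vs vehicle control mice. Value = treated/control.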

Setting [1] is: endpoint: mean survival time, dose: 100.0 mg/kg/injection, schedule: Q04DX003 (ip), vehicle: saline with Tween-80.
[2] abbreviates: endpoint: mean survival time, dose: 200.0 mg/kg/injection, schedule: Q04DX003 (ip), vehicle: saline with Tween-80.
The mark [3] stands for this setting: endpoint: mean survival time, dose: 400.0 mg/kg/injection, schedule: Q04DX003 (ip), vehicle: saline with Tween-80.
Setting [4] is: endpoint: mean survival time, dose: 100.0 mg/kg/injection, schedule: Q01DX009 (ip), vehicle: saline with Tween-80.
[5] abbreviates: endpoint: mean survival time, dose: 100.0 mg/kg/injection, schedule: Q01DX001 (ip), vehicle: saline.
The mark [6] stands for this setting: endpoint: mean survival time, dose: 200.0 mg/kg/injection, schedule: Q01DX001 (ip), vehicle: saline.
Where [7] appears, read: endpoint: mean survival time, dose: 400.0 mg/kg/injection, schedule: Q01DX001 (ip), vehicle: saline.
The mark [8] stands for this setting: endpoint: mean survival time, dose: 50.0 mg/kg/injection, schedule: Q01DX009 (ip), vehicle: saline.
Setting [9] is: endpoint: mean survival time, dose: 100.0 mg/kg/injection, schedule: Q01DX009 (ip), vehicle: saline.
The mark [10] stands for this setting: endpoint: mean survival time, dose: 100.0 mg/kg/injection, schedule: Q04DX003 (ip), vehicle: saline.
Setting [11] is: endpoint: mean survival time, dose: 200.0 mg/kg/injection, schedule: Q01DX009 (ip), vehicle: saline with Tween-80.
Where [12] appears, read: endpoint: mean survival time, dose: 400.0 mg/kg/injection, schedule: Q01DX009 (ip), vehicle: saline with Tween-80.
Where [13] appears, read: endpoint: mean survival time, dose: 100.0 mg/kg/injection, schedule: Q04DX002 (ip), vehicle: Klucel (hydroxypropylcellulose) (HPC).
Where [14] appears, read: endpoint: mean survival time, dose: 200.0 mg/kg/injection, schedule: Q04DX002 (ip), vehicle: Klucel (hydroxypropylcellulose) (HPC).
Setting [15] is: endpoint: mean survival time, dose: 400.0 mg/kg/injection, schedule: Q04DX002 (ip), vehicle: Klucel (hydroxypropylcellulose) (HPC).
Setting [16] is: endpoint: mean survival time, dose: 100.0 mg/kg/injection, schedule: Q04DX003 (ip), vehicle: Klucel (hydroxypropylcellulose) (HPC).
Setting [17] is: endpoint: mean survival time, dose: 200.0 mg/kg/injection, schedule: Q04DX003 (ip), vehicle: Klucel (hydroxypropylcellulose) (HPC).
Setting [18] is: endpoint: mean survival time, dose: 400.0 mg/kg/injection, schedule: Q04DX003 (ip), vehicle: Klucel (hydroxypropylcellulose) (HPC).

Take `COc1ccc(OC)c(NC(=O)Oc2ccc(Cl)c(C)c2)c1`: the T/C under setting [1] is 90 % of control, the T/C under setting [2] is 87 % of control and the T/C under setting [3] is 93 % of control.

Turning to `CCc1cc(S(=O)(=O)O)c(CC)c(CC)c1CC`, the T/C under setting [4] was 97 % of control.

`CCCCNS(=O)(=O)c1ccc(C(N)=S)cc1`: the T/C by setting is: (endpoint: mean survival time, dose: 100.0 mg/kg/injection, schedule: Q01DX001 (ip), vehicle: Klucel (hydroxypropylcellulose) (HPC)) 111 % of control; (endpoint: mean survival time, dose: 200.0 mg/kg/injection, schedule: Q01DX001 (ip), vehicle: Klucel (hydroxypropylcellulose) (HPC)) 106 % of control; (endpoint: mean survival time, dose: 400.0 mg/kg/injection, schedule: Q01DX001 (ip), vehicle: Klucel (hydroxypropylcellulose) (HPC)) 103 % of control.

Consider `CCCCC(=O)N/N=C/c1ccc(N(C)C)cc1`, for which the T/C under setting [5] was 91 % of control, the T/C under setting [6] was 87 % of control and the T/C under setting [7] was 95 % of control.

Take `C/C=C\C(=O)OC.[W]`: the T/C runs as follows: under setting [8], 97 % of control; under setting [9], 105 % of control; (endpoint: mean survival time, dose: 200.0 mg/kg/injection, schedule: Q01DX009 (ip), vehicle: saline) 108 % of control.

With `O=c1ccn(CCC(CO)CO)c(=O)[nH]1`, the T/C is 101 % of control under setting [10]; 106 % of control (endpoint: mean survival time, dose: 200.0 mg/kg/injection, schedule: Q04DX003 (ip), vehicle: saline); 102 % of control (endpoint: mean survival time, dose: 400.0 mg/kg/injection, schedule: Q04DX003 (ip), vehicle: saline).

As to `Cc1ccc(NC(=O)Nc2cccc(C(F)(F)F)c2)cc1NC(=O)Nc1cccc(C(F)(F)F)c1`, the T/C by setting is: under setting [1], 93 % of control; under setting [11], 92 % of control; under setting [12], 103 % of control; under setting [3], 88 % of control.

Take `CC(C)C(C(=O)c1ccccc1)c1ccccc1` (configuration not stated): the T/C under setting [4] is 93 % of control; the T/C under setting [1] was 99 % of control; the T/C under setting [11] was 93 % of control; the T/C under setting [2] was 100 % of control; the T/C under setting [12] is 104 % of control; the T/C under setting [3] was 89 % of control.

Turning to `COc1ccc(NC(=O)Nc2ccccc2)cc1`, the T/C is 105 % of control (endpoint: mean survival time, dose: 50.0 mg/kg/injection, schedule: Q04DX002 (ip), vehicle: Klucel (hydroxypropylcellulose) (HPC)); 98 % of control and 102 % of control under setting [13]; 99 % of control under setting [14]; 91 % of control under setting [15].

Take `NCCCNCCCCNCCCN`: the T/C is 103 % of control (endpoint: mean survival time, dose: 2.0 mg/kg/injection, schedule: Q01DX010 (ip), vehicle: other); 103 % of control (endpoint: mean survival time, dose: 4.0 mg/kg/injection, schedule: Q01DX010 (ip), vehicle: other); 97 % of control (endpoint: mean survival time, dose: 8.0 mg/kg/injection, schedule: Q01DX010 (ip), vehicle: other); 92 % of control (endpoint: mean survival time, dose: 16.0 mg/kg/injection, schedule: Q01DX010 (ip), vehicle: other); 97 % of control (endpoint: mean survival time, dose: 32.0 mg/kg/injection, schedule: Q01DX010 (ip), vehicle: other); 87 % of control and 90 % of control (endpoint: median survival time, dose: 6.3 mg/kg/injection, schedule: Q01DX009 (ip), vehicle: water). For the same compound, the T/C (endpoint: median survival time, dose: 12.5 mg/kg/injection, schedule: Q01DX009 (ip), vehicle: water) is 96 % of control and 100 % of control; the T/C (endpoint: median survival time, dose: 25.0 mg/kg/injection, schedule: Q01DX009 (ip), vehicle: water) was 94 % of control and 95 % of control; the T/C (endpoint: median survival time, dose: 50.0 mg/kg/injection, schedule: Q01DX009 (ip), vehicle: water) is 96 % of control and 100 % of control.

In the case of `COc1cc(C=Nc2cccc(C(F)(F)F)c2)ccc1O`, the T/C (endpoint: mean survival time, dose: 100.0 mg/kg/injection, schedule: Q01DX009 (ip), vehicle: Klucel (hydroxypropylcellulose) (HPC)) was 95 % of control; the T/C under setting [16] is 102 % of control; the T/C (endpoint: mean survival time, dose: 200.0 mg/kg/injection, schedule: Q01DX009 (ip), vehicle: Klucel (hydroxypropylcellulose) (HPC)) is 86 % of control; the T/C under setting [17] is 98 % of control; the T/C (endpoint: mean survival time, dose: 400.0 mg/kg/injection, schedule: Q01DX009 (ip), vehicle: Klucel (hydroxypropylcellulose) (HPC)) is 101 % of control; the T/C under setting [18] is 104 % of control.

Regarding `Cc1ccc(C(=O)O)cc1[N+](=O)[O-]`, the T/C is 95 % of control under setting [16], 92 % of control under setting [17] and 103 % of control under setting [18].

Consider `CNS(=O)(=O)c1ccccc1C=C(c1ccccc1)c1ccccc1`, for which the T/C runs as follows: (endpoint: mean survival time, dose: 100.0 mg/kg/injection, schedule: Q01DX001 (ip), vehicle: steriod suspending solution) 92 % of control; (endpoint: mean survival time, dose: 200.0 mg/kg/injection, schedule: Q01DX001 (ip), vehicle: steriod suspending solution) 114 % of control; (endpoint: mean survival time, dose: 400.0 mg/kg/injection, schedule: Q01DX001 (ip), vehicle: steriod suspending solution) 102 % of control.

As to `CCN(CC)CC(=O)Nc1cccc2c1C(=O)c1c(c(O)c3ccccc3c1O)C2=O`, the T/C is, setting by setting: (endpoint: mean survival time, dose: 50.0 mg/kg/injection, schedule: Q01DX009 (ip), vehicle: saline with Tween-80) 94 % of control; under setting [4], 103 % of control; under setting [1], 101 % of control; under setting [11], 98 % of control; under setting [2], 155 % of control; under setting [3], 102 % of control.

With `O=C(OCc1ccccc1CN1CCCCC1)c1ccc([N+](=O)[O-])cc1Cl`, the T/C runs as follows: under setting [13], 98 % of control; under setting [14], 98 % of control; under setting [15], 91 % of control.

For `c1ccc2c(c1)CNCc1ccccc1-2`, the T/C (endpoint: mean survival time, dose: 25.0 mg/kg/injection, schedule: Q01DX009 (ip), vehicle: saline) is 92 % of control; the T/C under setting [8] is 105 % of control; the T/C under setting [9] was 96 % of control; the T/C under setting [10] was 105 % of control.

Regarding `Nc1ccc(N=Nc2ccc(S(=O)(=O)Nc3nccs3)cc2)c(N)n1`, the T/C was 102 % of control under setting [5], 96 % of control under setting [6] and 88 % of control under setting [7].
